US10835535B2, “Certain protein kinase inhibitors” (Shanghai Fochon Pharmaceutical Co., Ltd., priority 2016, dated 2020)

Legend:
BE2C cells = experiment: Cell proliferation assay (MTS) in BE2C cells; format: cell-based; details: Homo sapiens, BE(2)-C, 48 h
From the text: (§1) MTS testing kit was purchased from Promega. The DMEM, Fetal bovine serum and Penicillin-Streptomycin were purchased from Gibco. Dimethyl sulfoxide (DMSO) was purchased from Sigma.
(§2) To investigate whether a compound is able to inhibit the activity of CDK4/6 in cells, mechanism-based assays using BE2C (ATCC® number: CRL-2268) or JEKO-1 (ATCC® number: CRL-3006) cell were developed. In the assay, inhibition of CDK4/6 was detected by the inhibition of BE2C or JEKO-1 cell cells proliferation. BE2C or JEKO-1 cell cells were cultured in culture flasks to 40-80% confluence in DMEM plus 10% fetal bovine serum. Cells were collected and plated onto 96-well plates at desired cell density (BE2C: 3000 cells/well; JEKO-1: 30000 cells/well). Plates were incubated overnight at 37° C., with 5% CO2 to adhere. Compounds were added to the plates, the final compound concentrations were 10000, 3333, 1111, […], 123.5, 41.2, 13.7, 4.6 and 1.5 nM. Place plates at 37° C., with 5% CO2 for 48 h. After removing the medium, 20 μl MTS/100 μl medium mixture solution were added to each well and incubate the plates for exactly 2 hours. Stop the reaction by adding 25 μl 10% SDS per well. Measure absorbance at 490 nm and 650 nm (reference wavelength). IC50 was calculated using GraphPad Prism 5.0.
(§3) Select compounds prepared as described above were assayed according to the biological procedures described herein. “+++” stands for IC50 value between greater than about 10 nM to about 100 nM. “++” stands for IC50 value between greater than about 100 nM to about 1 μM. “+” stands for IC50 value greater than 1 μM.

JEKO-1 cells = experiment: Cell proliferation assay (MTS) in JEKO-1 cells; format: cell-based; details: Homo sapiens, 48 h
From the text: as §1, §2, §3

COLO205 xenograft tumors = experiment: Tumor growth inhibition in COLO205 xenograft tumors; format: in vivo, mice; details: for TGI %: TGI = (1−T/C)×100%
Method: COLO205 cells were cultured with RPMI-1640 medium containing 10% fetal bovine serum (FBS) at 37° C. in 5% CO^2 incubator. Logarithmic growth phase cells were collected. COLO205 cells (5×10^6 in 200 μL PBS) were implanted subcutaneously into the left flank region, and tumor growth was monitored. Tumor volume (V) was estimated from the length (l) and width (w) of the tumor using the following formula: V=1/2×l×w^2. Treatment started when average tumor size was 100-200 mm^3.
The dosage and dosage regimen were as shown table 2. Tumor volumes and mice weight were measured 2 to 3 times every week.
Drug efficacy was assessed as Tumor Growth Inhibition (TGI) and T/C ratio. TGI was defined as (1−T/C)×100%, wherein T/C (%) presented the ratio of the change in mean tumor volume of the treated group and of the control group.

[1] = Pharmacokinetic properties in dogs; format: in vivo; details: dog, po; male Beagle dogs, 3 mg/kg p.o., plasma
Method: Each test compounds was suspended in 0.5% methylcellulose (400 cP, w/v) in water.
Grouping male Beagle dogs was administered with test compound at a dose of 3 mg/kg by oral. After administering, blood samples were collected at time points of 0.25, 0.50, 1.0, 2.0, 4.0, 8.0 and 24.0 h. Standard curve was plotted based on concentrations of the samples in a suitable range, and the concentration of test compounds in plasma samples were determined by using LC-MS/MS. Pharmacokinetic parameters were calculated according to drug concentration-time curve using a non-compartmental method by Phoenix WinNonLin 6.3 software.

Row | AUC(0-inf) [1] [ng·h/mL] | AUC(0-t) [1] [ng·h/mL] | Cmax [1] [ng/mL] | half-life [1] [h] | SMILES | IC50 (BE2C cells) [nM] | IC50 (JEKO-1 cells) [nM] | T/C % (COLO205 xenograft tumors; 60 mg/kg PO QD × 14 days) [%] | TGI % (COLO205 xenograft tumors; 60 mg/kg PO QD × 14 days) [%] | T/C % (COLO205 xenograft tumors; 30 mg/kg PO QD × 14 days) [%] | TGI % (COLO205 xenograft tumors; 30 mg/kg PO QD × 14 days) [%]
1 | – | – | – | – | CN(C)C(=O)c1sc2cnc(Nc3ccc(N4CCC(N5CCNCC5)CC4)cn3)nc2c1C1CCCC1 [Example 4, 7-cyclopentyl-N,N-dimethyl-2-((5-(4-(piperazin-1-yl)piperidin-1-yl)pyridin-2-yl)amino)thieno[3,2-d]pyrimidine-6-carboxamide] | 100 to 1000 | – | – | – | – | –
2 | 7520 | 4660 | 312 | 16.1 | CN1CCN(C2CCN(c3ccc(Nc4ncc5sc(C(=O)N(C)C)c(C6CCCC6)c5n4)nc3)CC2)CC1 [Example 5, 7-cyclopentyl-N,N-dimethyl-2-((5-(4-(4-methylpiperazin-1-yl)piperidin-1-yl)pyridin-2-yl)amino)thieno[3,2-d]pyrimidine-6-carboxamide] | 10 to 100 | 10 to 100 | −2.31 | 102.31 | – | –
3 | 103 | 83 | 36 | 5.36 | CN1CCN(c2ccc(Nc3ncc4sc(C(=O)N(C)C)c(C5CCCC5)c4n3)nc2)CC1 [Reference Compound 1, 7-cyclopentyl-N,N-dimethyl-2-(5-(4-methylpiperazin-1-yl)pyridin-2-ylamino)thieno[3,2-d]pyrimidine-6-carboxamide, reference compound] | – | – | – | – | – | –
4 | – | – | – | – | CN1CCC(N2CCN(c3ccc(Nc4ncc5sc(C(=O)N(C)C)c(C6CCCC6)c5n4)nc3)CC2)CC1 [Example 3, 7-cyclopentyl-N,N-dimethyl-2-((5-(4-(1-methylpiperidin-4-yl)piperazin-1-yl)pyridin-2-yl)amino)thieno[3,2-d]pyrimidine-6-carboxamide] | 10 to 100 | 100 to 1000 | – | – | – | –
5 | 7010 | 2500 | 127 | 26 | CCN1CCC(N2CCN(c3ccc(Nc4ncc5sc(C(=O)N(C)C)c(C6CCCC6)c5n4)nc3)CC2)CC1 [Example 2, 7-cyclopentyl-2-((5-(4-(1-ethylpiperidin-4-yl)piperazin-1-yl)pyridin-2-yl)amino)-N,N-dimethylthieno[3,2-d]pyrimidine-6-carboxamide] | 10 to 100 | 100 to 1000 | – | – | 0.88 | 99.12
6 | 7340 | 5030 | 404 | 13.2 | CCN1CCN(C2CCN(c3ccc(Nc4ncc5sc(C(=O)N(C)C)c(C6CCCC6)c5n4)nc3)CC2)CC1 [Example 6, 7-cyclopentyl-2-((5-(4-(4-ethylpiperazin-1-yl)piperidin-1-yl)pyridin-2-yl)amino)-N,N-dimethylthieno[3,2-d]pyrimidine-6-carboxamide] | 10 to 100 | 10 to 100 | −2.97 | 102.97 | – | –
7 | – | – | – | – | CN(C)C(=O)c1sc2cnc(Nc3ccc(N4CCC(N5CCOCC5)CC4)cn3)nc2c1C1CCCC1 [Example 7, 7-cyclopentyl-N,N-dimethyl-2-((5-(4-morpholinopiperidin-1-yl)pyridin-2-yl)amino)thieno[3,2-d]pyrimidine-6-carboxamide] | 10 to 100 | – | – | – | – | –
8 | – | – | – | – | CN(C)C(=O)c1cc2cnc(Nc3ccc(N4CCNCC4)cn3)nc2n1C1CCCC1 [Ribociclib, reference compound] | – | – | 25.6 | 74.40 | – | –
9 | – | – | – | – | CN(C)C(=O)c1sc2cnc(Nc3ccc(N4CCN(C5CCNCC5)CC4)cn3)nc2c1C1CCCC1 [Example 1, 7-cyclopentyl-N,N-dimethyl-2-((5-(4-(piperidin-4-yl)piperazin-1-yl)pyridin-2-yl)amino)thieno[3,2-d]pyrimidine-6-carboxamide] | – | 100 to 1000 | – | – | – | –
